Reference: patent publication US20060216756A1, “Method for evaluating oxidized protein in horny cell layer” (Shiseido Company Ltd., priority 2003, published 2006)

Tests used:
[1] = test system: horny layer oxidized protein; experiment: Agent-induced inhibition of sodium hypochlorite-induced increase in horny layer oxidized protein (tape-stripped horny layer, fluorescein-5-thiosemicarbazide labeling); type: biochemical, human; details: abdomen tape horny layer, 0.2 mM sodium hypochlorite plus agent, 37° C. for 18 hours; concentration inhibiting increase to median between hypochlorite alone and water alone; read-out: 50% inhibition concentration
Procedure: Adhesive tape is attached to the skin, such as an unexposed part of the abdomen, of a healthy individual, and immediately stripped off for non-invasive sampling of the outer layer of the horny layer. The tape which was attached to the horny layer is incubated in an aqueous solution containing a mixture of the oxidizing agent and a fixed concentration of the candidate agent. […] The inhibiting effect of the agent on oxidized protein increase may also be evaluated based on the level of oxidized protein in the horny layer specimen obtained after simultaneously applying the oxidizing agent onto human skin.
(§1) Transparent adhesive tape was attached to the abdomen of a healthy individual and immediately stripped off, to non-invasively obtain the outer layer of the horny layer. The tape attached to the horny layer was incubated in an aqueous solution comprising a mixture of 0.2 mM sodium hypochlorite and a fixed concentration of the agent, at 37° C. for 18 hours. After incubation was complete, the mixture was thoroughly washed with phosphate-buffered saline (PBS) and then reacted with a 100 mM MES-Na buffer solution (pH 5.5) containing 20 μM fluorescein-5-thiosemicarbazide (Molecular Probes Co.) at room temperature for 1 hour. After completion of the reaction, thorough washing was carried out with phosphate-buffered saline (PBS) and a fluorescent microscope was used for observation.

[2] = test system: horny layer oxidized protein; experiment: Increase in horny layer oxidized protein due to aldehyde (tape-stripped horny layer); type: biochemical, human; details: 1 mM aqueous acrolein, room temperature, 18 hours, abdomen tape horny layer
Procedure: as §1, with “in a 1 mM” for “in an”, “aqueous acrolein” for “aqueous”, “solution” for “solution comprising a mixture of 0.2 mM sodium hypochlorite and a fixed concentration of the agent,”, “at room temperature” for “at 37° C.”

[3] = test system: horny layer oxidized protein; experiment: Increase in horny layer oxidized protein due to unsaturated fatty acid coated on forearm; type: in vivo, human; details: 40 μL/cm^2 of 30% linoleic acid-ethanol solution, 3 consecutive days
Procedure: (§2) After coating the forearm of a healthy individual with 40 μL/cm^2 of a 30% linoleic acid-ethanol solution for 3 consecutive days, transparent adhesive tape was attached to the irradiated site and immediately stripped off, to non-invasively obtain the outer layer of the horny layer. The tape attached to the horny layer was reacted with a 100 mM MES-Na buffer solution (pH 5.5) containing 20 μM fluorescein-5-thiosemicarbazide (Molecular Probes Co.) at room temperature for 1 hour. After completion of the reaction, thorough washing was carried out with phosphate-buffered saline (PBS), and then a fluorescent microscope was used for observation.

[4] = test system: horny layer oxidized protein; experiment: Increase in horny layer oxidized protein due to sodium hypochlorite and unsaturated fatty acids (tape-stripped horny layer); type: biochemical, human; details: 0.2 mM aqueous sodium hypochlorite, 37° C., 18 hours, abdomen tape horny layer
Procedure: Transparent adhesive tape was attached to the abdomen of a healthy individual and immediately stripped off, to non-invasively obtain the outer layer of the horny layer. The tape attached to the horny layer was coated with 200 μg/cm^2 of unsaturated fatty acids (linoleic acid, oleic acid and palmitoleic acid), and then incubated in a 0.2 mM aqueous sodium hypochlorite solution at 37° C. for 18 hours. After incubation was complete, the mixture was thoroughly washed with phosphate-buffered saline (PBS) and then reacted with a 100 mM MES-Na buffer solution (pH 5.5) containing 20 μM fluorescein-5-thiosemicarbazide (Molecular Probes Co.) at room temperature for 1 hour. After completion of the reaction, thorough washing was carried out with phosphate-buffered saline (PBS) and a fluorescent microscope was used for observation.

[5] = test system: horny layer oxidized protein; experiment: Increase in horny layer oxidized protein due to sodium hypochlorite coated on forearm; type: in vivo, human; details: 2 μL/cm^2 of 20 mM aqueous solution, 5 consecutive days
Procedure: as §2, with “2” for “40”, “20 mM aqueous sodium hypochlorite” for “30% linoleic acid-ethanol”, “5” for “3”, “attached” for “attached to the irradiated site”

SMILES	IC50 [1] [µM]	also measured
NCCS(=O)O [2-Aminoethanesulfinic acid]	86	–
NCCS(=O)(O)=S [2-Aminoethanethiosulfonic acid]	63	–
O=C1O[C@H]([C@@H](O)CO)C(O)=C1O[C@H]1O[C@H](CO)[C@@H](O)[C@H](O)[C@H]1O [2-O-α-D-Glucopyranosyl-L-ascorbic acid]	190	–
CCOC1=C(O)C(=O)O[C@@H]1[C@@H](O)CO [3-O-Ethylascorbic acid]	140	–
O=C1O[C@H]([C@@H](O)CO)C(O)=C1O [Ascorbic acid]	210	–
N[C@@H](CCC(=O)N[C@@H](CS)C(=O)NCC(=O)O)C(=O)O [Glutathione]	8	–
O=C1O[C@H]([C@@H](O)CO)C(O)=C1OP(=O)(O)O [Magnesium ascorbate phosphate ester]	< 125	–
Cc1c(C)c2c(c(C)c1OP(=O)(O)OC1=C(O)C(C(O)CO)OC1=O)CCC(C)(CCCC(C)CCCC(C)CCCC(C)C)O2 [Potassium α-tocopherol-2-L-ascorbate phosphate diester]	< 125	–
O=S(O)S(=O)(=O)O [Sodium pyrosulfite]	< 125	–
C=CC=O [acrolein]	–	change in oxidized protein after incubation with acrolein [2]: increase in oxidized protein
CCCCC/C=C\C/C=C\CCCCCCCC(=O)O [linoleic acid]	–	change in oxidized protein after coating skin with linoleic acid [3]: increase in oxidized protein
OCl [sodium hypochlorite]	–	change in oxidized protein after incubation with sodium hypochlorite, compared to incubation with water [4]: increase in oxidized protein; change in oxidized protein after coating skin with sodium hypochlorite [5]: increase in oxidized protein
Cc1c(C)c2c(c(C)c1O)CC[C@@](C)(CCC[C@H](C)CCC[C@H](C)CCCC(C)C)O2 [α-Tocopherol]	220	–
